How the values were obtained:
Format in all cases: in vivo
[1] = test system: winter wheat, TRZAW; test: Method D: safener seed treatment, herbicide and safener tank mix pre-emergence, greenhouse crop damage test; conditions: no herbicide
Protocol: (§1) For the safener seed treatment, sufficient seeds were weighed into screw top glass bottles approximately twice the volume of the seeds.
(§2) The safener (mefenpyr-diethyl, formulated as suspension concentrate (SC)) was weighed out so that the required rates (g a.i./kg seed) would be obtained, dissolved in water (1 ml water per 10 g of seeds), and added to the seeds to produce a slurry.
(§3) The bottles were capped and then placed in an overhead shaker (set at medium speed for up to 1 hour) so that the seeds were evenly coated with the slurry. The bottles were uncapped and the seeds were sown as described above.
(§4) For the seed treatment process, the blind formulation (the SC formulation without the safener mefenpyr-diethyl) was used as seed treatment as described above.
The compounds were sprayed to the soil surface as an aqueous suspension at an equivalent water application rate of 300 l/ha.
(§5) The combination of herbicide and safener was applied as a tank mix.
(§6) After application, the test plants were kept in the greenhouse under good growth conditions.
(§7) Values in the table below are mean values from at least 3 replicates.

[2] = test system: winter wheat, TRZAW; test: Method A: safener seed treatment, herbicide post-emergence, greenhouse crop damage test; conditions: safener seed treatment 0.5 g/kg only, no herbicide
Protocol: as §1, §2, §3, §4
Post-emergence application of the herbicide was done when the plants had reached growth stage BBCH11.
as §6, §7

[3] = test system: winter wheat, TRZAW; test: Method C: safener seed treatment, herbicide and safener tank mix post-emergence, greenhouse crop damage test; conditions: no herbicide
Protocol: as §1, §2, §3, §4
Post-emergence application was done when the plants had reached growth stage BBCH11.
The safener (mefenpyr-diethyl) was formulated as wettable powder (WP).
The compounds were sprayed onto the green parts of the plants as an aqueous suspension at an equivalent water application rate of 300 l/ha.
as §5, §6, §7

[4] = safener seed treatment 0.5 g/kg only

Structure (SMILES): CCOC(=O)C1=NN(c2ccc(Cl)cc2Cl)C(C)(C(=O)OCC)C1 (centres unmarked) [Safener seed treatment, ethyl 1-(2,4-dichlorophenyl)-5-(ethoxycarbonyl)-5-methyl-2-pyrazoline-3-carboxylate]
- % crop damage ([1]; safener 200 g/ha in tank mix only, pre-emergence, 14 days after application): 5%
- % crop damage [1, 4]: 2%
- % crop damage [2]: 0%
- % crop damage ([3]; safener 200 g/ha in tank mix only, post-emergence, 14 days after application): 5%
- % crop damage [3, 4]: 0%

— patent US11219209B2, “Method of reducing crop damage” (Bayer Aktiengesellschaft, priority 2018, dated 2022)
